ChEMBL document CHEMBL1140050, “Designed glycopeptides with different beta-turn types as synthetic probes for the detection of autoantibodies as biomarkers of multiple sclerosis” (J Med Chem, 2008)
pIC50: −log10 of the molar value. Residues, ends and D or L forms follow the SMILES beside them. *: point of attachment. NH(β-D-Glc) = OC[C@H]1O[C@@H](N*)[C@H](O)[C@@H](O)[C@@H]1O

Assay: Binding affinity to anti-CSF114 (Glc) antibody in serum from multiple sclerosis patient by ELISA

Compared with `CSCC[C@H](NC(=O)[C@H](Cc1c[nH]c2ccccc12)NC(=O)CNC(=O)[C@H](Cc1ccc(O)cc1)NC(=O)[C@@H]1CCCN1C(=O)[C@H](C)NC(=O)[C@H](CC(C)C)NC(=O)[C@H](Cc1ccccc1)NC(=O)[C@@H](NC(=O)[C@@H](NC(=O)[C@H](Cc1cnc[nH]1)NC(=O)[C@H](CC(=O)N[C@@H]1O[C@H](CO)[C@@H](O)[C@H](O)[C@H]1O)NC(=O)[C@@H]1CCCN1C(=O)[C@H](CCCNC(=N)N)NC(=O)[C@H](CCC(=O)O)NC(=O)[C@@H](NC(=O)[C@H](CCCNC(=N)N)NC(=O)[C@@H]1CCCN1C(=O)[C@@H](N)[C@@H](C)O)C(C)C)[C@@H](C)O)C(C)C)C(=O)N[C@H](C(=O)N[C@@H](CCCCN)C(=O)O)C(C)C` (H-TPRVERPD(NH(β-D-Glc))HTVFLAPYGWMVK-OH), `CSCC[C@H](NC(=O)[C@H](Cc1c[nH]c2ccccc12)NC(=O)CNC(=O)[C@H](Cc1ccc(O)cc1)NC(=O)[C@@H]1CCCN1C(=O)[C@H](C)NC(=O)[C@H](CC(C)C)NC(=O)[C@H](Cc1ccccc1)NC(=O)[C@@H](NC(=O)[C@@H](NC(=O)[C@H](Cc1cnc[nH]1)NC(=O)[C@H](CC(=O)N[C@@H]1O[C@H](CO)[C@@H](O)[C@H](O)[C@H]1O)NC(=O)CNC(=O)[C@H](CCCNC(=N)N)NC(=O)[C@H](CCC(=O)O)NC(=O)[C@@H](NC(=O)[C@H](CCCNC(=N)N)NC(=O)[C@@H]1CCCN1C(=O)[C@@H](N)[C@@H](C)O)C(C)C)[C@@H](C)O)C(C)C)C(=O)N[C@H](C(=O)N[C@@H](CCCCN)C(=O)O)C(C)C` (H-TPRVERGD(NH(β-D-Glc))HTVFLAPYGWMVK-OH) is 0.41 log units lower in pIC50: 7.93 for the first, 7.52 for the second.

Going from `CC(=O)N[C@@H](CCC(=O)O)C(=O)N[C@@H](CCCNC(=N)N)C(=O)N1CCC[C@H]1C(=O)N[C@@H](CC(=O)N[C@@H]1O[C@H](CO)[C@@H](O)[C@H](O)[C@H]1O)C(=O)N[C@@H](Cc1cnc[nH]1)C(=O)N[C@H](C(=O)N[C@H](C(N)=O)C(C)C)[C@@H](C)O` (Ac-ERPD(NH(β-D-Glc))HTV-NH2) to `CSCC[C@H](NC(=O)[C@H](Cc1c[nH]c2ccccc12)NC(=O)CNC(=O)[C@H](Cc1ccc(O)cc1)NC(=O)[C@@H]1CCCN1C(=O)[C@H](C)NC(=O)[C@H](CC(C)C)NC(=O)[C@H](Cc1ccccc1)NC(=O)[C@@H](NC(=O)[C@H](CO)NC(=O)[C@H](Cc1cnc[nH]1)NC(=O)CNC(=O)[C@H](CC(=O)N[C@@H]1O[C@H](CO)[C@@H](O)[C@H](O)[C@H]1O)NC(=O)[C@H](CCCNC(=N)N)NC(=O)[C@H](CCC(=O)O)NC(=O)[C@@H](NC(=O)[C@H](CCCNC(=N)N)NC(=O)[C@@H]1CCCN1C(=O)[C@@H](N)[C@@H](C)O)C(C)C)C(C)C)C(=O)N[C@H](C(=O)N[C@@H](CCCCN)C(=O)O)C(C)C`, the pIC50 falls from 7.83 to 6.86 (0.97 log units).
